Measurements published in patent US11629121B2, “Benzylideneacetone derivative and use thereof” (KORPHARM CO., LTD., priority 2017, dated 2023).

How the values were obtained:
[1] = system: RAW264.7 rat macrophage cell line; experiment: MTT assay, normal cells RAW264.7; type: cell-based; conditions: rat, 48 h
Source text: (§1) The cytotoxicity against normal cells and cancer cells was confirmed using the MTT assay for the novel compounds KP2 to KP8 prepared in Example 1.
(§2) MTT assay method is as follows:
(§3) Normal cells (RAW264.7 rat macrophage cell line (osteoblast progenitor cell) and NIH3T3 mouse fibroblast line) and cancer cells (AGS human gastric cancer cell line, A549 human lung cancer cell line, HepG2 human liver cancer cell line, HCT116 human colon cancer cell line, PC3 human prostate cancer Cell line, Caki-1 human kidney cancer cell line, T24 human bladder cancer cell line, HT1080 human fibrosarcoma cell line, B16F10 mouse melanoma cell line) were cultured in 5% CO2 in 96-well plates containing DMEM with 10% FBS (fetal bovine serum). After incubation, KP2 to KP8 and controls (osmundacetone and 4-hydroxybenzalacetone) were added to the cell medium and incubated for 48 hours. Thereafter, 100 μl of MTT (0.5 mg/mL phosphate buffered saline) was added, followed by incubation for 2 hours. 100 μl of DMSO was added to each well, followed by incubation for 10 minutes, and the absorbance was measured at 550 nm using a microplate reader (SPCTRA MAX 340PC, Molecular Devices, USA). Absorbance is calculated by the formula below as an indicator of the number of cells that survived, and reproducibility was confirmed by three experiments.
(§4) The rate of cell proliferation (%)=OD550(sample)/OD550(control)

[2] = system: NIH3T3 mouse fibroblast line; experiment: MTT assay, normal cells NIH3T3; type: cell-based; conditions: for LD50 Normal cells NTH3T3: mouse, 48 h
Source text: as §1, §2, §3, §4

[3] = system: AGS human gastric cancer cell line; experiment: MTT assay, cancer cells AGS; type: cell-based; conditions: 48 hours
Source text: as §1, §2, §3, §4

[4] = system: Caki-1 human kidney cancer cell line; experiment: MTT assay, cancer cells Caki-1; type: cell-based; conditions: 48 hours
Source text: as §1, §2, §3, §4

[5] = system: PC3 human prostate cancer Cell line; experiment: MTT assay, cancer cells PC3; type: cell-based; conditions: 48 hours
Source text: as §1, §2, §3, §4

[6] = system: HT1080 human fibrosarcoma cell line; experiment: MTT assay, cancer cells HT1080; type: cell-based; conditions: 48 hours
Source text: as §1, §2, §3, §4

[7] = system: A549 human lung cancer cell line; experiment: MTT assay, cancer cells A549; type: cell-based; conditions: for LD63 Cancer cell A549: MTT assay, 48 hours
Source text: as §1, §2, §3, §4

[8] = system: HCT116 human colon cancer cell line; experiment: MTT assay, cancer cells HCT116; type: cell-based; conditions: for inhibitory activity better than Osmundacetone: HP116 colorectal cancer cells; for LD63 Cancer cell HCT116: MTT assay, 48 hours
Source text: as §1, §2, §3, §4

[9] = system: HepG2 human liver cancer cell line; experiment: MTT assay, cancer cells HepG2; type: cell-based; conditions: for LD63 Cancer cell HepG2: MTT assay, 48 hours; for cancer cell inhibitory activity versus Osmundacetone: HepG2 hepatocellular carcinoma cells
Source text: as §1, §2, §3, §4

[10] = system: B16F10 mouse melanoma cell line; experiment: MTT assay, cancer cells B16F10; type: cell-based; conditions: 48 hours, H16F10
Source text: as §1, §2, §3, §4

[11] = system: T24 human bladder cancer cell line; experiment: MTT assay, cancer cells T24; type: cell-based; conditions: for LD63 Cancer cell T24: MTT assay, 48 hours
Source text: as §1, §2, §3, §4

[12] = system: osteoclast differentiation from bone marrow cells (RANKL and M-CSF); experiment: TRAP assay, osteoclast differentiation and proliferation; type: cell-based, C57BL/6 mice; conditions: Osteoclast; TRAP-positive multinucleated cells, mouse bone marrow cells, 6-7 days; read-out: osteoclast differentiation inhibitory activity IC50
Protocol: The specific method of the TRAP assay is as follows:
The tibia and femur were aseptically excised from 6 to 8 weeks old male C57BL/6 mice, and bone marrow cells were collected aseptically with a syringe (21G, Korea Green Cross). Bone marrow cells were suspended in 500 μl of -MEM medium (Gibco BRL Co.) containing sodium bicarbonate (2.0 g/L), streptomycin (100 mg/L) and penicillin ([…]), and aliquoted into a 48-well plate, and assay was carried out with triplicate. The progenitor cells of osteoclasts, monocytes, were isolated and treated with RANKL and M-CSF, which are differentiation promoters, to differentiate into osteoclasts within 5-7 days.
1) Sample preparation: KP2 to KP8 (0.5 μM, 1 μM, 5 μM or 10 μM), Fosamax (0.5 μM, 1 μM, 5 μM, or 10 μM) and the like were dissolved in DMSO (dimethylsulfoxide) or sterile distilled water at appropriate concentrations, respectively.
2) Sample administration: The Samples were continuously administered to the medium at 1:20 (v/v; 25 μL of sample per 500 μL of medium) from the first day of culture of bone marrow cells, and the medium was replaced at 3 days intervals.
3) Osteoclast differentiation measurement: Osteoclasts were defined as TRAP-positive multinucleated cells stained with TRAP. […] The reaction reagents were stored in the refrigerator until use.
Bone marrow cells were cultured in a medium containing differentiation factors for 6-7 days, and then the medium was removed, washed with PBS, and fixed in PBS containing 10% formalin for 2-5 minutes. After fixed for 1 minute with a 1:1 mixture of ethanol and acetone, and dried. The fixed cells were treated with TRAP staining solution for 60 minutes at 37° C. with light blocking, washed with PBS, and then stained with Hematoxylin.
Among the TRAP-positive cells in the microscope field, cells with two or more nuclei were determined as osteoclasts and the number of cells was measured.

[13] = system: osteoblasts (mouse MC3T3-E1); experiment: ALP (Alkaline phosphatase) assay, osteoblast activity; type: cell-based; conditions: for ALP activity / osteoblast activation versus control: 10 μM and 50 μM; for % Activation of ALP activity: MC3T3-E1, 14 days, percentage against control
Protocol: Effect of KP4 to KP6 on proliferation and differentiation of osteoblast were confirmed using ALP (Alkaline phosphatase) assay, a method for measuring osteoblast activity.
Alkaline phosphatase (ALP), which is present in the cell membranes of osteoblasts, is known as a marker of osteoblast activity and is a regulator of inorganic phosphate transport, cell division or differentiation during calcification. Therefore, ALP activity was measured to determine the effect of the compounds of the present invention on the activity of osteoblasts. ALP activity was indirectly calculated by measuring the amount of p-nitrophenol, which is produced from hydrolysis of p-nitrophenyl phosphate (pNPP, Sigma, St. Louis, Mo., USA) in which ALP act as a catalyst, using a microplate reader at 405 nm wavelength.
Specifically, osteoblasts (mouse MC3T3-E1) were aliquoted into a 96-well plate (3×10^3 cells/100 μL/well) with α-MEM medium containing ascorbic acid (50 μg/mL) and 10 mM β-glycerophosphate, a differentiation factors of osteoblast. Then, KP4 to KP6 of the present invention, and osmundacetone were added at a final concentration of 10 μM and 50 μM, followed by changing medium every 72 hours and incubating for 14 days. After 14 days, the culture medium was removed from each well, washed three times with PBS, lysed with 0.2% Nonidet P-40/10 mmol/L MgCl2, and then treated ultrasonic wave with sosonifier cell disrupter (Model W-380, Heat Systems-Ultrasonics Inc., Farmingdale, N.Y.) for 3 minutes. The cell lysate was centrifuged at 1500 g for 10 minutes and the supernatant was collected to measure ALP activity. To account for changes in ALP activity according to cell number differences, total protein levels were measured using bicinchoninic acid (BCA) protein assay kit with bovine serum albumin as the standard protein, and enzyme activity was expressed as a percentage against the control group without the compound treatment.

CC(=O)C=Cc1ccc(O)cc1 [4-Hydroxybenzalacetone, reference compound]
LD50 Normal cells RAW264.7 [1]: 294 ± 45 µM
LD50 Normal cells NTH3T3 [2]: 201 ± 10 µM

CC(=O)/C=C/c1ccc(F)c(O)c1 [KP3, (E)-4-(4-fluoro-3-hydroxyphenyl)but-3-en-2-one]
LD63 Cancer cell AGS [3]: 239 ± 14 µM
LD63 Cancer cell Caki-1 [4]: 408 ± 12 µM
LD63 Cancer cell PC3 [5]: 387 ± 48 µM
LD63 Cancer cell HT1080 [6]: 379 ± 10 µM
LD50 Normal cells RAW264.7 [1]: 503 ± 57 µM
LD63 Cancer cell A549 [7]: 1090 ± 46 µM
inhibitory activity better than Osmundacetone [8]: 2 times
LD63 Cancer cell HCT116 [8]: 389 ± 18 µM
LD63 Cancer cell HepG2 [9]: 612 ± 95 µM
Cytotoxicity, B16F10 cells [10]: 278 ± 15 µM
LD63 Cancer cell T24 [11]: >5,000 μM
LD50 Normal cells NTH3T3 [2]: >5000 µM

CC(=O)/C=C/c1ccc(C)c(O)c1 [KP2, (E)-4-(3-hydroxy-4-methylphenyl)but-3-en-2-one]
LD63 Cancer cell AGS [3]: 209 ± 5.9 µM
LD63 Cancer cell Caki-1 [4]: 387 ± 57 µM
LD63 Cancer cell PC3 [5]: 309 ± 3.1 µM
LD63 Cancer cell HT1080 [6]: 256 ± 14 µM
LD50 Normal cells RAW264.7 [1]: 395 ± 22 µM
cancer cell inhibitory activity versus Osmundacetone ([7]; A549 lung cancer cells): significantly better cancer cell inhibitory activity
LD63 Cancer cell A549 [7]: 471 ± 24 µM
inhibitory activity better than Osmundacetone [8]: 2 times
LD63 Cancer cell HCT116 [8]: 380 ± 32 µM
cancer cell inhibitory activity versus Osmundacetone [9]: significantly better cancer cell inhibitory activity
LD63 Cancer cell HepG2 [9]: 339 ± 79 µM
Cytotoxicity, B16F10 cells [10]: 298 ± 27 µM
LD63 Cancer cell T24 [11]: 1120 ± 67 µM
cytotoxicity to normal cells [2]: weak cytotoxicity
LD50 Normal cells NTH3T3 [2]: 688 ± 12 µM

NC(=O)/C=C/c1ccc(F)c(O)c1 [KP8, (E)-3-(4-fluoro-3-hydroxyphenyl)acrylamide]
LD63 Cancer cell AGS [3]: 569 ± 4.8 µM
LD63 Cancer cell Caki-1 [4]: 2990 ± 58 µM
LD63 Cancer cell PC3 [5]: >5,000 μM
LD63 Cancer cell HT1080 [6]: 1090 ± 19 µM
LD50 Normal cells RAW264.7 [1]: >5000 µM
LD63 Cancer cell A549 [7]: 935 ± 10 µM
LD63 Cancer cell HCT116 [8]: >5,000 μM
LD63 Cancer cell HepG2 [9]: 1280 ± 390 µM
Cytotoxicity, B16F10 cells [10]: >5,000 μM
LD63 Cancer cell T24 [11]: 203 ± 69 µM
inhibitory activity ([11]; T24 bladder cancer cells): particularly better inhibitory activity
LD50 Normal cells NTH3T3 [2]: >5000 µM

CC(=O)/C=C/c1ccc(O)c(F)c1 [KP6, (E)-4-(3-fluoro-4-hydroxyphenyl)-3-buten-2-one]
LD63 Cancer cell AGS [3]: 336 ± 3.9 µM
LD63 Cancer cell Caki-1 [4]: 449 ± 40 µM
IC50 [12]: 6 µM
LD63 Cancer cell PC3 [5]: 205 ± 13 µM
LD63 Cancer cell HT1080 [6]: >5,000 μM
LD50 Normal cells RAW264.7 [1]: 1110 ± 48 µM
LD63 Cancer cell A549 [7]: 901 ± 28 µM
LD63 Cancer cell HCT116 [8]: 490 ± 38 µM
Cytotoxicity, B16F10 cells [10]: 421 ± 41 µM
LD63 Cancer cell T24 [11]: 3610 ± 130 µM
ALP activity / osteoblast activation versus control [13]: no activity on activating osteoblast
% Activation of ALP activity ([13]; 10 μM): 102 ± 0.2%
% Activation of ALP activity ([13]; 50 μM): 100 ± 0.8%
LD50 Normal cells NTH3T3 [2]: >5000 µM

Cc1ccc(/C=C/C(N)=O)cc1O [KP7, (E)-3-(3-hydroxy-4-methylphenyl)acrylamide]
LD63 Cancer cell AGS [3]: 329 ± 14 µM
LD63 Cancer cell Caki-1 [4]: 361 ± 16 µM
LD63 Cancer cell PC3 [5]: 394 ± 140 µM
LD63 Cancer cell HT1080 [6]: 309 ± 10 µM
LD50 Normal cells RAW264.7 [1]: >5000 µM
LD63 Cancer cell A549 [7]: 989 ± 50 µM
inhibitory activity better than Osmundacetone [8]: 2 times
LD63 Cancer cell HCT116 [8]: 315 ± 19 µM
cancer cell inhibitory activity versus Osmundacetone [9]: significantly better cancer cell inhibitory activity
LD63 Cancer cell HepG2 [9]: 379 ± 38 µM
Cytotoxicity, B16F10 cells [10]: 1210 ± 110 µM
LD63 Cancer cell T24 [11]: 1040 ± 360 µM
LD50 Normal cells NTH3T3 [2]: >5000 µM

COc1ccc(/C=C/C(C)=O)cc1O [KP5, (E)-4-(3-hydroxy-4-methoxyphenyl)-3-buten-2-one]
LD63 Cancer cell AGS [3]: 181 ± 15 µM
LD63 Cancer cell Caki-1 [4]: 409 ± 11 µM
IC50 [12]: 1 µM
LD63 Cancer cell PC3 [5]: 291 ± 5.7 µM
LD63 Cancer cell HT1080 [6]: 381 ± 49 µM
LD50 Normal cells RAW264.7 [1]: 261 ± 79 µM
LD63 Cancer cell A549 [7]: 1890 ± 210 µM
LD63 Cancer cell HCT116 [8]: 491 ± 72 µM
Cytotoxicity, B16F10 cells [10]: 441 ± 58 µM
LD63 Cancer cell T24 [11]: >5000 µM
ALP activity / osteoblast activation versus control [13]: higher ALP activity
% Activation of ALP activity ([13]; 10 μM): 103 ± 1.1%
% Activation of ALP activity ([13]; 50 μM): 175 ± 0.3%
LD50 Normal cells NTH3T3 [2]: >5000 µM

COc1cc(/C=C/C(C)=O)ccc1O [KP4, (E)-4-(4-hydroxy-3-methoxyphenyl)-3-buten-2-one]
LD63 Cancer cell AGS [3]: 417 ± 15 µM
LD63 Cancer cell Caki-1 [4]: 506 ± 13 µM
LD63 Cancer cell PC3 [5]: 223 ± 85 µM
LD63 Cancer cell HT1080 [6]: >5,000 μM
LD50 Normal cells RAW264.7 [1]: 399 ± 42 µM
LD63 Cancer cell A549 [7]: 3010 ± 38 µM
LD63 Cancer cell HCT116 [8]: 495 ± 13 µM
Cytotoxicity, B16F10 cells [10]: 423 ± 39 µM
LD63 Cancer cell T24 [11]: >5000 µM
ALP activity / osteoblast activation versus control [13]: higher ALP activity
% Activation of ALP activity ([13]; 10 μM): 113 ± 2.9%
ALP activity increase compared with the control group ([13]; 50 μM): ≥ 400%
osteoblast activity compared to osmundacetone treat group ([13]; 50 μM): 1.5 times
% Activation of ALP activity ([13]; 50 μM): 422 ± 6.9%
LD50 Normal cells NTH3T3 [2]: >5000 µM

NCCCC(O)(P(=O)(O)O)P(=O)(O)O [Fosamax, reference compound]
IC50 [12]: 4 µM
